Source: US9657351B2, “MRNA-based gene expression for personalizing patient cancer therapy with an MDM2 antagonist” (Hoffmann-La Roche Inc., priority 2013, dated 2017)

Key:
[1] = test system: Ki-67-positive tumor cells; experiment: NP21280 solid tumor trial, tumor biopsy biomarker (Ki67); type: in vivo, human; conditions: p=2.62×10−2
Method: The predictive mRNA signature is also evaluated in two solid tumor trials (FIG. 1). In trial NP21280 30 patients with pretreatment and C1D5 tumor biopsy samples are evaluated; and in NP22890 20 patients with pretreatment and C1D8 tumor biopsy samples are evaluated (Table 6). In both clinical trials, a biomarker package that enabled assessment of p53 pathway activation is assessed (p53 IHC, p21 IHC, MDM2 mRNA, and Ki67), MDM2 inhibition activates the P53 pathway and decreases cell proliferation.

[2] = test system: LN-18; experiment: COMPOUND A In Vitro Assay; type: cell-based, human; conditions: for IC50: Homo sapiens
Source text: (§1) To generate an MDM2 antagonist therapy predictive signature, the response of MDM2 antagonist therapy in vitro with gene expression profiling (FIG. 1) is combined. A bank of 287 human cancer cell lines, collectively termed the Cell Lines for Oncology/Chugai ACcumulative Tumour EncycLopedia (CELLO/CACTEL), representing a broad array of diverse human cancer tumor types are subject to evaluation using several high-throughput genomic technology platforms. The mutational status of nucleic acids from each cell line is determined by exome sequencing. Messenger RNA (mRNA) expression levels at baseline, prior to MDM2 antagonist therapy, are obtained via RNA sequencing. MDM2 antagonist therapy COMPOUND A, sometimes referred to herein as RG7112, responses are obtained by assays known to those skilled in the art such as RNA sequencing and microarray measurement using Gene Chip Human Genome U133 Plus 2.0 Array. The MDM2 therapy responses are obtained by high throughout screening assays. Depending on their responses to COMPOUND A these cell lines are classified as either sensitive, defined as IC50<=1, or resistant, defined as IC50>=10.
(§2) 281 cells are treated with MDM2 antagonists and the IC50 (therapy response) is generated. The cell lines span a broad range of tumor cell types of derivation.

[3] = test system: KMS-12-BM; experiment: COMPOUND A In Vitro Assay; type: cell-based, human; conditions: TP53 mutant cell line
Source text: as §1, §2

[4] = test system: PC-9; experiment: COMPOUND A In Vitro Assay; type: cell-based, human; conditions: for IC50: Homo sapiens
Source text: as §1, §2

[5] = test system: 22Rv1; experiment: COMPOUND A In Vitro Assay; type: cell-based, human; conditions: for IC50: Homo sapiens
Source text: as §1, §2

`CCOc1cc(C(C)(C)C)ccc1C1=N[C@@](C)(c2ccc(Cl)cc2)[C@@](C)(c2ccc(Cl)cc2)N1C(=O)N1CCN(CCCS(C)(=O)=O)CC1` [COMPOUND A] was tested, and the “Ki-67-positive tumor cells change from baseline” value [1] was “decreased”, the IC50 ([2]; LN-18, LN-18, Brain, temporal lobe, TP53 Mutant) was 670 nM and the IC50 ([2]; LN-18, LN-18 cells) was 700 nM. For the same molecule, the “response to COMPOUND A (sensitive / resistant)” value ([2]; LN-18, TP53 mutant cell line) was “sensitive (sensitive, defined as IC50<=1)”, the “response to COMPOUND A (sensitive / resistant)” value [3] was “sensitive (sensitive, defined as IC50<=1)” and the IC50 ([4]; PC-9, PC-9, Lung, TP53 Mutant) was 690 nM. For the same molecule, the IC50 ([4]; PC-9, PC-9 cells) was 700 nM, the “response to COMPOUND A (sensitive / resistant)” value ([4]; PC-9, TP53 mutant cell line) was “sensitive (sensitive, defined as IC50<=1)” and the “response to COMPOUND A (sensitive / resistant)” value ([5]; 22Rv1, TP53 mutant cell line) was “sensitive (sensitive, defined as IC50<=1)”. It also gave an IC50 ([5]; 22Rv1, 22Rv1, Prostate, TP53 Mutant) of 970 nM and an IC50 ([5]; 22Rv1, 22Rv1 cells) of 1000 nM.
